Patent US20260219279A1, “IMPROVED HIGH-THROUGHPUT HYDROGEN-DEUTERIUM EXCHANGE-MASS SPECTROMETRY SYSTEM AND METHOD” (THE BOARD OF REGENTS OF THE UNIVERSITY OF OKLAHOMA, priority 2023, published 2026)

Assays:
[1] = target: T1, 60 kDa chaperonin (Escherichia coli, UniProt P0A6F5); assay: Differential PTD-HDX-MS in 60° C.-depleted E. coli cell lysate; format: binding; details: 60° C.-PTD sample
T1 construct: endogenous in cells; host or cells: E. coli cell lysate
Protocol: (§1) Samples were prepared in triplicate.
(§2) The flowrate was controlled at 150 μL/min.
(§3) The decoy database was automatically generated in MSGF+ software.

[2] = target: T2, alkyl hydroperoxide reductase C (Escherichia coli, UniProt P0AE08); assay: as above; format: binding; details: 60° C.-PTD sample
T2 construct: endogenous in cells; host or cells: E. coli cell lysate
Protocol: as §1, §2, §3

T2 sequence (P0AE08 2-187): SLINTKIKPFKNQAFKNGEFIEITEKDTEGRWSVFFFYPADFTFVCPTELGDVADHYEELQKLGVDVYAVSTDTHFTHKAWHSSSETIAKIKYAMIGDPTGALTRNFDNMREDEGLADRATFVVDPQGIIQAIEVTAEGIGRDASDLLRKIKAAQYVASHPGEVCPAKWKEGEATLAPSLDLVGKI
T1 sequence (P0A6F5 2-548): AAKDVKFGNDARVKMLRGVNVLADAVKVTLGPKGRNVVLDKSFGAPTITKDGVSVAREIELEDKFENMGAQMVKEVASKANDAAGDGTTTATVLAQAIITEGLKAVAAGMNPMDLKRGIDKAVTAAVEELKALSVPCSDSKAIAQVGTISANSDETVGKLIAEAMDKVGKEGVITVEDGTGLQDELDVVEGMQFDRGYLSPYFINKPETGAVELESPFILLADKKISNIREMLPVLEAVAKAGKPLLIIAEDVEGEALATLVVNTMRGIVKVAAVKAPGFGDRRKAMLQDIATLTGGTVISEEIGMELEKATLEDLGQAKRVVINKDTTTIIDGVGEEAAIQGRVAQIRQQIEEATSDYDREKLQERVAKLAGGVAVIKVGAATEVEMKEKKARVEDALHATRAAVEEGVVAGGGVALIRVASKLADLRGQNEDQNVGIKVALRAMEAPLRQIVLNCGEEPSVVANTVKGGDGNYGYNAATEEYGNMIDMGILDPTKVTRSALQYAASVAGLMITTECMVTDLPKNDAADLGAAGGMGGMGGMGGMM

CC(=O)Nc1nnc(S(N)(=O)=O)s1 [AZM, Acetazolamide]
deuterium uptake difference of characterized peptides following AZM treatment [1]: no significant differences
deuterium uptake difference of characterized peptides following AZM treatment [2]: no significant differences
